Source: patent US9115101B2 (Genentech, Inc., priority 2012, dated 2015)

Target: T1, RORc ligand binding domain (Homo sapiens, UniProt P51449)
T1 construct: host or cells: E. coli
T1 sequence (P51449 269-508 limits assumed): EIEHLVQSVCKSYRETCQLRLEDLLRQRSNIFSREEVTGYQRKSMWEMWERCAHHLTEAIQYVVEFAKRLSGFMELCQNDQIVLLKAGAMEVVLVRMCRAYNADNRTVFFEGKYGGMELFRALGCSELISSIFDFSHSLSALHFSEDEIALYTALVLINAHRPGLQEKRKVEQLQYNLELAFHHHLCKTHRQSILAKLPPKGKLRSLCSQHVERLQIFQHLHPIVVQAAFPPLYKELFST
Test: In Vitro RORc Ligand Binding Assay (25-[3H]hydroxycholesterol radioligand filtration)
Settings: In Vitro RORc Ligand Binding Assay; Table 4; read-out: RORc IC50

IC50 | SMILES
242 nM | C[C@H]1CCC(c2ccccc2)S(=O)(=O)N1Cc1ccc(N2CCc3[nH]ncc3C2)cc1F (single isomer, unassigned) [Example 145]
1500 nM | CC(=O)N1CCN(c2ccc(CN3[C@H](C)CCC(c4ccccc4)S3(=O)=O)cn2)CC1 (single isomer, unassigned) [Example 48]
14 nM | CC(=O)N1CCN(c2ccc(CN3CC4(CC4)CC(c4ccccc4)S3(=O)=O)c(F)c2)CC1 (single isomer, unassigned) [Example 199, 1-{4-[4-(6,6-Dioxo-7-phenyl-6-thia-5-aza-spiro[2.5]oct-5-ylmethyl)-3-fluoro-phenyl]-piperazin-1-yl}-ethanone]
5 nM | CC(=O)N1CCN(c2ccc(CN3CC(C)CCC(c4ccccc4)S3(=O)=O)c(F)c2)CC1 (single isomer, unassigned) [Example 334, 1-{4-[3-Fluoro-4-(4-methyl-1,1-dioxo-7-phenyl-[1,2]thiazepan-2-ylmethyl)-phenyl]-piperazin-1-yl}-ethanone]
107 nM | CC(=O)N1CCN(c2ccc(CN3C[C@@H](C)OCC(c4ccccc4)S3(=O)=O)c(F)c2)CC1 (single isomer, unassigned) [Example 30]
30 nM | CC(=O)N1CCN(c2ccc(CN3[C@@H](C(C)C)CCC(c4ccccc4)S3(=O)=O)c(F)c2)CC1 (single isomer, unassigned) [Example 246]
179 nM | CC1CC(=O)C=C(N2CCN(c3ccc(CN4[C@@H](C)CCC(c5ccccc5)S4(=O)=O)c(F)c3)CC2)C1 (stereo partly drawn) [Example 186, 3-{4-[3-Fluoro-4-((3S)-3-methyl-1,1-dioxo-6-phenyl-[1,2]thiazinan-2-ylmethyl)-phenyl]-piperazin-1-yl}-5-methyl-cyclohex-2-enone]
86 nM | CS(=O)(=O)N1CCC(Oc2ccc(CN3CCCC(c4ccccc4)S3(=O)=O)c(F)c2)CC1 (single isomer, unassigned) [Example 55, 2-(2-fluoro-4-((1-(methylsulfonyl)piperidin-4-yl)oxy)benzyl)-6-phenyl-1,2-thiazinane 1,1-dioxide]
1740 nM | C[C@H]1CCC(c2ccccc2)S(=O)(=O)N1Cc1ccc(C(=O)N(C)C2CCS(=O)(=O)C2)cc1 (stereo partly drawn) [Example 289, N-(1,1-Dioxo-tetrahydro-thiophen-3-yl)-N-methyl-4-((3S)-methyl-1,1-dioxo-6-phenyl-[1,2]thiazinan-2-ylmethyl)-benzamide]
125 nM | CC(=O)N1CCN(c2ccc(CN3CCCC(c4ccc(F)cc4)S3(=O)=O)c(F)c2)CC1 (single isomer, unassigned) [Example 11, 1-(4-{3-Fluoro-4-[6-(4-fluoro-phenyl)-1,1-dioxo-[1,2]thiazinan-2-ylmethyl]-phenyl}-piperazin-1-yl)-ethanone]
71 nM | C[C@H]1CCC(c2ccccc2)S(=O)(=O)N1Cc1ccc(OC2CN(S(C)(=O)=O)C2)cc1F (single isomer, unassigned) [Example 36]
330 nM | C[C@H]1CCC(c2ccccc2)S(=O)(=O)N1Cc1ccc(N2CCn3nccc3C2)cc1F (single isomer, unassigned) [Example 134]
898 nM | C[C@H](O)C(=O)N1CCN(c2ccc(CN3CCCCC(c4ccccc4)S3(=O)=O)cc2)CC1 (single isomer, unassigned) [Example 311, 1-{4-[4-(1,1-Dioxo-7-phenyl-[1,2]thiazepan-2-ylmethyl)-phenyl]-piperazin-1-yl}-2-hydroxy-propan-1-one]
1970 nM | O=C(CO)N1CCN(c2ccc(CN3CCCCC(c4ccccc4)S3(=O)=O)cc2)CC1 (single isomer, unassigned) [Example 318, 1-{4-[4-(1,1-Dioxo-7-phenyl-[1,2]thiazepan-2-ylmethyl)-phenyl]-piperazin-1-yl}-2-hydroxy-ethanone]
98 nM | CC(=O)N1CCN(c2ccc(CN3[C@@H](C)CCC(c4ccc(C)cc4)S3(=O)=O)c(F)c2)CC1 (single isomer, unassigned) [Example 184]
81 nM | CC(=O)N1CCN(c2ccc(CN3[C@@H](C)CCC(c4ccccc4)S3(=O)=O)cc2)CC1 (single isomer, unassigned) [Example 40]
219 nM | CC(=O)N1CCN(c2ccc(CN3C4CCCC4CC(c4ccccc4)S3(=O)=O)c(F)c2)CC1 (single isomer, unassigned) [Example 251, 1-(4-(4-((2,2-dioxido-3-phenylhexahydro-cyclopenta[c][1,2]thiazin-1(3H)-yl)methyl)-3-fluorophenyl)piper-azin-1-yl)ethanone]

IC50 | SMILES
194 nM | C[C@H]1CCC(c2ccccc2)S(=O)(=O)N1Cc1ccc(OC2CN(S(C)(=O)=O)C2)cc1F (single isomer, unassigned) [Example 37]
14 nM | CC(=O)N1CCN(c2ccc(CN3[C@@H](C)CCC(c4ccc(F)cc4)S3(=O)=O)c(F)c2)CC1 (single isomer, unassigned) [Example 121]
93 nM | C[C@@H]1CC(c2ccccc2)S(=O)(=O)N(Cc2ccc(N3CCN(C(=O)CC#N)CC3)cc2F)C1 (stereo partly drawn) [Example 230, 3-{4-[3-Fluoro-4-((4R)-methyl-1,1-dioxo-6-phenyl-[1,2]thiazinan-2-ylmethyl)-phenyl]-piperazin-1-yl}-3-oxo-propionitrile]
1250 nM | C[C@H]1CCC(c2ccccc2)S(=O)(=O)N1Cc1ccc(N2CCCNCC2)cc1F (single isomer, unassigned) [Example 89]
106 nM | C[C@H](O)C(=O)N1CCN(c2ccc(CN3CCCCC(c4ccccc4)S3(=O)=O)cc2)CC1 (single isomer, unassigned) [Example 309, 1-{4-[4-(1,1-Dioxo-7-phenyl-[1,2]thiazepan-2-ylmethyl)-phenyl]-piperazin-1-yl}-2-hydroxy-propan-1-one]
132 nM | CC(=O)N1CCN(c2ccc(CN3C[C@H](C)CC(c4ccccc4)S3(=O)=O)c(F)c2)CC1 (single isomer, unassigned) [Example 169]
18 nM | C[C@H]1CCC(c2ccccc2)S(=O)(=O)N1Cc1ccc(N2CCC(CS(C)(=O)=O)CC2)cc1F (single isomer, unassigned) [Example 105]
310 nM | CC(=O)N1CCN(c2ccc(CN3[C@H](C)CC(c4ccccc4)S3(=O)=O)c(F)c2)CC1 (stereo partly drawn) [Example 349, 1-{4-[3-Fluoro-4-((3R)-methyl-1,1-dioxo-5-phenyl-isothiazolidin-2-ylmethyl)-phenyl]-piperazin-1-yl}-ethanone]
3930 nM | C[C@H]1CCC(c2ccccc2)S(=O)(=O)N1Cc1ccc(N2CCn3c(n[nH]c3=O)C2)cc1F (single isomer, unassigned) [Example 158]
9 nM | C[C@H]1CCC(c2ccccc2)S(=O)(=O)N1Cc1ccc(N2CCC(c3cnn[nH]3)CC2)cc1F (single isomer, unassigned) [Example 254]
410 nM | C[C@H]1CCC(c2ccccc2)S(=O)(=O)N1Cc1ccc(N2CCC(c3nccn3C)CC2)cc1F (single isomer, unassigned) [Example 140]
117 nM | COc1cccc(C2CC[C@H](C)N(Cc3ccc(N4CCN(C(C)=O)CC4)cc3F)S2(=O)=O)c1 (single isomer, unassigned) [Example 190]
76 nM | CO[C@@H](C)C(=O)N1CCCN(c2ccc(CN3[C@@H](C)CCC(c4ccccc4)S3(=O)=O)c(F)c2)CC1 (single isomer, unassigned) [Example 90]
157 nM | CC(=O)N1CCN(c2ccc(CN3CCCC(c4ccccc4)S3(=O)=O)c(F)c2)CC1 (single isomer, unassigned) [Example 2]
1770 nM | C[C@H]1CCC(c2ccccc2)S(=O)(=O)N1Cc1ccc(C(=O)N2CCC(CCNS(C)(=O)=O)CC2)cc1 (stereo partly drawn) [Example 294, N-(2-{1-[4-((3S)-Methyl-1,1-dioxo-6-phenyl-[1,2]thiazinan-2-ylmethyl)-benzoyl]-piperidin-4-yl}-ethyl)-methanesulfonamide]
54 nM | CC(=O)N1CCN(c2ccc(CN3C[C@H](C)CC(c4ccccc4)S3(=O)=O)c(F)c2)CC1 (single isomer, unassigned) [Example 170]

Same assay, conditions: read-out: RORc IC50

IC50 | SMILES
1050 nM | C[C@H]1CCC(c2ccccc2)S(=O)(=O)N1Cc1ccc(OC[C@H]2CCC(=O)N2)cc1 (single isomer, unassigned) [Example 450]
95 nM | C[C@H]1CCC(c2ccccc2)S(=O)(=O)N1Cc1ccc(N2CCN3C(=O)OCC3C2)cc1F (stereo partly drawn) [Example 400, 7-[3-Fluoro-4-((3S)-methyl-1,1-dioxo-6-phenyl-[1,2]thiazinan-2-ylmethyl)-phenyl]-hexahydro-oxazolo[3,4-a]pyrazin-3-one]
32 nM | C[C@H]1CCC(c2ccccc2)S(=O)(=O)N1Cc1ccc(N2CCC(C)(n3cnnc3)CC2)cc1F (single isomer, unassigned) [Example 413]
3520 nM | C[C@H]1CCC(c2ccccc2)S(=O)(=O)N1Cc1ccc(C(=O)NC2CCC(O)C2)cc1 (single isomer, unassigned) [Example 411]
37 nM | C[C@H]1CCC(c2ccccc2)S(=O)(=O)N1Cc1ccc(N2CCN(c3ncncn3)CC2)cc1F (stereo partly drawn) [Example 442, 2-{4-[3-Fluoro-4-((3S)-methyl-1,1-dioxo-6-phenyl-[1,2]thiazinan-2-ylmethyl)-phenyl]-piperazin-1-yl}-[1,3,5]triazine]
3540 nM | C[C@H]1CCC(c2ccccc2)S(=O)(=O)N1Cc1ccc(N2CCN3C(=O)CN(C)C(=O)[C@@H]3C2)cc1F (stereo partly drawn) [Example 402, (S)-8-[3-Fluoro-4-((3S)-methyl-1,1-dioxo-6-phenyl-[1,2]thiazinan-2-ylmethyl)-phenyl]-2-methyl-hexahydro-pyrazino[1,2-a]pyrazine-1,4-dione]
244 nM | CNC(=O)[C@H]1CN(C(C)=O)CCN1c1ccc(CN2[C@@H](C)CCC(c3ccccc3)S2(=O)=O)c(F)c1 (stereo partly drawn) [Example 435, (R)-4-Acetyl-1-[3-fluoro-4-((3S)-methyl-1,1-dioxo-6-phenyl-[1,2]thiazinan-2-ylmethyl)-phenyl]-piperazine-2-carboxylic acid methylamide]
